Our source for the IC50 values is US9789096B2, “Methods and compositions for selective and targeted cancer therapy” (Board of Regents of the University of Texas System, priority 2013, dated 2017).

The structures appear in SMILES notation. Where only a bound is given, the exact number is not on record here.

For the first assay, the system named is H1819. Kind of assay: Cell viability dose-response, H1819. It is filed as cell-based, human. The settings on record: Homo sapiens, NCI-H1819, 12-point dose-response starting at 50 micromolar, 3-fold increments, in duplicate; read-out: toxicity data, H1819. As to the method: (§1) FIG. 6A. […] Cell viability is plotted vs. compound concentration. Compound was added to cells plated at 15% confluence in 96-well plates in RPMI-1640 media supplemented with 5% Fetal Bovine Serum and 2 mM L-Glutamine. After 4 days of incubation, ATP levels were measured using Cell Titer Glo (Promega). Data are presented as the average of 2 replicates ±SEM.
(§2) Selectivity may be measured by the half maximal inhibitory concentration (IC50), which, as used herein, is a measure of the effectiveness of a compound in killing cells. This quantitative measure indicates how much of a particular compound is needed to kill a particular cell population by half (e.g., as indicated by the amount of ATP). […] The IC50 can be determined by constructing a dose-response curve. The lower the IC50, the higher the potency, and the greater the difference between IC50 values for different cell lines (e.g., sensitive lines vs. insensitive lines, and sensitive lines vs. normal lines) the greater the selectivity. […]
(§3) With this information, we synthesized and tested a series of small molecules derived in conception from the oxalamide and chromone scaffold including N-acyl ureas, as shown in Tables 6-8. Each compound was tested in a 12-point dose-response study starting at 50 micromolar and decreasing in 3-fold increments to sub-nanomolar concentrations, in duplicate. Additionally, one or more additional cell line was tested in the same way.
As to `COc1ccc(CCNC(=O)C(=O)Nc2cc(F)ccc2F)cc1` [SW206884-1-A], the IC50 was at least 49.5 µM.

For the compound `COc1ccc(CCNC(=O)C(=O)Nc2c(Br)cccc2Br)cc1` [SW206887-1-A], the IC50 is at least 49.5 µM.

`COc1ccc(CCNC(=O)C(=O)Nc2ccc(Br)cc2Br)cc1` [SW206888-1-A]: the IC50 was at least 49.5 µM.

On to `COc1ccc(CCNC(=O)C(=O)Nc2cc(Cl)c(F)c(Cl)c2)cc1` [SW206889-1-A], for which the IC50 is at least 49.5 µM.

As for `COc1ccc(CCNC(=O)C(=O)Nc2c(Cl)cccc2Cl)cc1` [SW206890-1-A], the IC50 is at least 49.5 µM.

Regarding `COc1ccc(CCNC(=O)C(=O)Nc2cc(Cl)cc(Cl)c2)cc1` [SW206891-1-A], the IC50 worked out at 43.8 µM.

As to `COc1ccc(CCNC(=O)C(=O)Nc2ccc(Cl)cc2C)cc1` [SW206926-1], the IC50 is at least 49.5 µM.

In the case of `COc1ccc(CCNC(=O)C(=O)Nc2ccc(Cl)cc2F)cc1` [SW206951-1], the IC50 is at least 49.5 µM.

As for `COc1ccc(CCNC(=O)C(=O)Nc2ccc(Cl)c(F)c2)cc1` [SW206952-1], the IC50 is at least 49.5 µM.

Consider `COc1ccc(CCNC(=O)C(=O)Nc2ccc(Cl)cc2Br)cc1` [SW206953-1], for which the IC50 is 41.7 µM.

On to `COc1ccc(CCNC(=O)C(=O)Nc2ccc(Cl)c(Br)c2)cc1` [SW206954-1], for which the IC50 was at least 49.5 µM.

For the compound `COc1ccc(CCNC(=O)C(=O)Nc2ccc(Br)c(Br)c2)cc1` [SW206955-1], the IC50 is at least 49.5 µM.

Turning to `COc1ccc(CCNC(=O)C(=O)Nc2ccc(Cl)c(C#N)c2)cc1` [SW206959-1], the IC50 was at least 49.5 µM.

The assay is the same for the next values; noted with them: Homo sapiens, NCI-H1819, Tables 3 and 4; read-out: IC50 (uM) vs indicated non-small cell lung cancer cell line H1819.
Regarding `COc1ccc2nc(NS(=O)(=O)c3ccc4c(c3)OCCO4)sc2c1` [SW202748], the IC50 worked out at 69 µM.

The subject of the next assay is H2122. The assay can be described thus: Cell viability dose-response, H2122. It is filed as cell-based, human. The settings on record: Homo sapiens, NCI-H2122, 12-point dose-response starting at 50 micromolar, 3-fold increments, in duplicate; read-out: toxicity data, H2122. As to the method:
as §1, §2, §3
In the case of `COc1ccc(CCNC(=O)C(=O)Nc2cc(F)ccc2F)cc1` [SW206884-1-A], the IC50 was at least 49.5 µM.

Consider `COc1ccc(CCNC(=O)C(=O)Nc2c(Br)cccc2Br)cc1` [SW206887-1-A], for which the IC50 is at least 49.5 µM.

Regarding `COc1ccc(CCNC(=O)C(=O)Nc2ccc(Br)cc2Br)cc1` [SW206888-1-A], the IC50 is at least 49.5 µM.

`COc1ccc(CCNC(=O)C(=O)Nc2cc(Cl)c(F)c(Cl)c2)cc1` [SW206889-1-A]: the IC50 is at least 49.5 µM.

On to `COc1ccc(CCNC(=O)C(=O)Nc2c(Cl)cccc2Cl)cc1` [SW206890-1-A], for which the IC50 is at least 49.5 µM.

With `COc1ccc(CCNC(=O)C(=O)Nc2cc(Cl)cc(Cl)c2)cc1` [SW206891-1-A], the IC50 was at least 49.5 µM.

For the compound `COc1ccc(CCNC(=O)C(=O)Nc2ccc(Cl)cc2C)cc1` [SW206926-1], the IC50 is at least 49.5 µM.

Consider `COc1ccc(CCNC(=O)C(=O)Nc2ccc(Cl)cc2F)cc1` [SW206951-1], for which the IC50 is at least 49.5 µM.

Consider `COc1ccc(CCNC(=O)C(=O)Nc2ccc(Cl)c(F)c2)cc1` [SW206952-1], for which the IC50 amounted to 0.294 µM.

For `COc1ccc(CCNC(=O)C(=O)Nc2ccc(Cl)cc2Br)cc1` [SW206953-1], the IC50 was at least 49.5 µM.

As for `COc1ccc(CCNC(=O)C(=O)Nc2ccc(Cl)c(Br)c2)cc1` [SW206954-1], the IC50 was 0.871 µM.

Take `COc1ccc(CCNC(=O)C(=O)Nc2ccc(Br)c(Br)c2)cc1` [SW206955-1]: the IC50 amounted to 0.421 µM.

With `COc1ccc(CCNC(=O)C(=O)Nc2ccc(Cl)c(C#N)c2)cc1` [SW206959-1], the IC50 amounted to 0.398 µM.

The same assay, now with this note: Homo sapiens, NCI-H2122, Table 9, competitor; read-out: IC50 to H2122 cells.
As for `COc1ccc(CCNC(=O)C(=O)Nc2ccc(Cl)c(C#N)c2)cc1` [SW206959-1], the IC50 was 0.182 µM.

The same assay, now with this note: Homo sapiens, NCI-H2122, Tables 3 and 4; read-out: IC50 (uM) vs indicated non-small cell lung cancer cell line H2122.
With `C#CCOc1ccc2nc(NC(=O)c3ccc(C(=O)c4ccccc4)cc3)sc2c1` [SW202868], the IC50 is 0.005 µM.

`COc1ccc2nc(NC(=O)c3ccc(C(=O)N4CCN(C)CC4)cc3)sc2c1` [SW203669]: the IC50 was at least 49.5 µM.

Consider `COc1ccc2nc(NC(=O)c3ccc(Nc4ccccc4)cc3)sc2c1` [SW203670], for which the IC50 is 0.108 µM.

In the case of `COc1ccc(Nc2ccc(C(=O)Nc3nc4ccc(OC)cc4s3)cc2)cc1` [SW203671], the IC50 is 0.314 µM.

Turning to `COc1ccc2nc(NC(=O)c3ccc(C(O)c4ccccn4)cc3)sc2c1` (stereo not shown) [SW203726], the IC50 was determined as 0.029 µM.

For `COc1ccc2nc(NC(=O)c3ccc(C(=O)c4ccccn4)cc3)sc2c1` [SW203727], the IC50 is 0.016 µM.

As for `COc1ccc2nc(NC(=O)c3ccc(N=[N+]=[N-])cc3)sc2c1` [SW203728], the IC50 worked out at 0.12 µM.

Consider `COc1ccc2nc(NC(=O)c3ccc(C(=O)N4CCCCC4)cc3)sc2c1` [SW203730], for which the IC50 is 0.845 µM.

Turning to `COc1ccc2nc(NC(=O)c3ccc(C(=O)N4CCOCC4)cc3)sc2c1` [SW203731], the IC50 turned out to be 2.28 µM.

On to `COc1ccc2nc(NC(=O)c3ccc(C(=O)NCc4ccccc4)cc3)sc2c1` [SW203732], for which the IC50 stood at 0.013 µM.

Take `COc1ccc2nc(NC(=O)c3ccc(C(=O)c4cccnc4)cc3)sc2c1` [SW203733]: the IC50 stood at 0.017 µM.

Take `C#CCOCCOCCOCCOCCOc1ccc2nc(NC(=O)c3ccc(C(=O)c4ccccc4)cc3)sc2c1` [SW203734]: the IC50 turned out to be 0.939 µM.

`COc1ccc2nc(NC(=O)c3ccc(C(O)c4ccncc4)cc3)sc2c1` (stereo not shown) [SW203735]: the IC50 was 0.036 µM.

On to `COc1ccc2nc(NC(=O)c3ccc(C(O)c4ccccc4)cc3)sc2c1` (stereo not shown) [SW207003], for which the IC50 was found to be 0.006 µM.

Still in this assay, the particulars now being: Homo sapiens, NCI-H2122, cell prints its own unit; 12-point dose-response starting at 50 micromolar; read-out: toxicity data, H2122.
Consider `C#CCOc1ccc(CCNC(=O)C(=O)Nc2ccc(C(=O)c3ccccc3)cc2)cc1` [SW207038], for which the IC50 is above 1 µM.
